Results taken from article PMC9304322, “Targeting retinoic acid receptor alpha-corepressor interaction activates chaperone-mediated autophagy and protects against retinal degeneration” (Nature Communications, 2022).
Values joined by “and” are separate entries in the source; they are usually repeats but may differ in a detail not shown here. Identical values can stand only once.

Tests used:
[1] = biological target: T1, RARα and the N-CoR1 peptide (Homo sapiens, UniProt P10276); experiment: Fluorescence polarization binding assay, RARα LBD and FITC-N-CoR1 peptide; settings: 10 μΜ compound
T1 construct: human RARα (residues 176-421); His6-SUMO (N, cleaved yes); made in house; host or cells: Escherichia coli BL21(DE3) RIL
Protocol: The ligand binding domain (LBD) of the human RARα (residues 176-421) was fused to a preceding His6-SUMO tag separated by a ubiquitin-like protease (ULP1) cleavage site and was expressed in Escherichia coli BL21(DE3) RIL cell strain. Cells were grown at 37 °C in LB medium supplemented with 50 µg/mL kanamycin until OD600 reached about 0.8. Expression of T7 polymerase was induced by addition of isopropyl-b-d-thiogalactoside (IPTG, #10724815001) to a final concentration of 0.8 mM and cells were incubated at 20 °C overnight. Cell cultures were harvested by centrifugation at 8,000 × g for 15 mins. The cell pellet from 1 liter of LB growth was resuspended in 50 mL lysis buffer (20 mM Tris-HCl pH 8, 500 mM NaCl, 25 mM imidazole) supplemented with one complete™, EDTA-free protease inhibitor tablet (Roche Applied Science, #11873580001). The suspension was lysed using a high pressure homogenizer and centrifuged at 35,000 × g at 4 °C for 45 minutes. […]
The fluorescein-tagged peptide of N-CoR1, FITC-Ahx-[…] […] Fluorescence polarization assays (FPA) were performed using established procedures. […] Fluorescence polarization was measured at 30 min on a F200 PRO microplate reader (TECAN) with the excitation wavelength set at 470 nm and emission measured at 530 nm. EC50 values were calculated by nonlinear regression analysis of competitive binding curves using GraphPad Prism software.

[2] = In vitro solubility by nephelometry; assay type: physicochemical; settings: in words
Protocol: In vitro solubility in the following conditions A) HBSS/HEPES 10 mM/BSA 0.1% pH 6 B) HBSS/HEPES 10 mM/BSA 0.1% pH 7.4 C) TRIS/BSA 0.1% PBS (pH 7.4 and at indicated doses were measured by Nephelometry using the NEPHELOstar Galaxy apparatus (BMG Lab Technologies). In vitro stability in human, mouse and rat liver microsomes and permeability using a bidirectional permeability assay with CaCo-2 cells (pH 6.5/7.4) assays were performed with standard methodology and analyzed by LC-MS/MS. at SIMM-SERVIER joint Biopharmacy Laboratory. ADME properties for CA39 and CA77 were predicted by QikProp (Schrödinger, LLC, Releases 2016-2020) software.

[3] = Pharmacokinetic analysis, plasma and brain;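 on Fig. 3b level, single animals 1-3: brain concentration in ng/g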; assay type: in vivo, ICR (CD-1) male mice; set-up: Fig. 3a level, single animals 1-3 / Fig. 3b level, single animals 1-3: unit not given here; settings: for Fig. 3a level, single animals 1-3 / Fig. 3b level, single animals 1-3: IV, Time 0.083 h; for predicted brain concentration: intraperitoneal 30 mg/kg bw, converted from Cmax or AUC (CA39: AUC and extended half-life)

T1 sequence (P10276 176-421, other chains not shown): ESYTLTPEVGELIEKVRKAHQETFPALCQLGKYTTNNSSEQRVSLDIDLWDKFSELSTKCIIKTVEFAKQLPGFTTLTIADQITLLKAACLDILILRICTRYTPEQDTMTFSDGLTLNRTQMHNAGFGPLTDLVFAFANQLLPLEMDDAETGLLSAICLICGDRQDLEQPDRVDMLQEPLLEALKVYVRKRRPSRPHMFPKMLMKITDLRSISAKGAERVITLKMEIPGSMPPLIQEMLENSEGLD

| Compound | N-CoR1 peptide binding to RARα in fluorescence polarization assays [1] | solubility [2] | Fig. 3a level, single animals 1-3 [3] | Fig. 3b level, single animals 1-3 [3] | predicted brain concentration [3] [µM] |
| --- | --- | --- | --- | --- | --- |
| CC(=O)Nc1ccc(C2=Nc3ccc(Cl)cc3OC2)cc1 [CA77] | enhanced N-CoR1 peptide binding to RARα | reasonable | 52.9 and 41.4 and 14.2 | 3773 and 2943 and 693 | 5 to 20 |
| Clc1ccc2c(c1)OCC(c1ccc(-c3ccccc3)cc1)=N2 [CA39] | enhanced N-CoR1 peptide binding to RARα | reasonable | 52.0116 and 70.6516 and 60.713 | 52.0116 and 70.6516 and 60.713 | 10 to 20 |
